One assay addresses T1, Human complement C1s enzyme (Homo sapiens, UniProt P09871).
T1 construct: purified from human serum, Complement Technology, Inc; purchased Complement Technology, Inc; host or cells: human serum
T1 sequence (P09871 438-688 limits assumed): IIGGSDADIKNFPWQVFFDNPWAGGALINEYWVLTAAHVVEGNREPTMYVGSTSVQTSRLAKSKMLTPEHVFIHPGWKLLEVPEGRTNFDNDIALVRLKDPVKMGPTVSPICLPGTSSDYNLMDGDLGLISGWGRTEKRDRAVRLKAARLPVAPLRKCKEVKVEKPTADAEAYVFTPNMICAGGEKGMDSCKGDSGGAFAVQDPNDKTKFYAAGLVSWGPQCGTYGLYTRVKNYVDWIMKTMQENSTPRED
T1 sequence (P09871 16-437 partner limits assumed): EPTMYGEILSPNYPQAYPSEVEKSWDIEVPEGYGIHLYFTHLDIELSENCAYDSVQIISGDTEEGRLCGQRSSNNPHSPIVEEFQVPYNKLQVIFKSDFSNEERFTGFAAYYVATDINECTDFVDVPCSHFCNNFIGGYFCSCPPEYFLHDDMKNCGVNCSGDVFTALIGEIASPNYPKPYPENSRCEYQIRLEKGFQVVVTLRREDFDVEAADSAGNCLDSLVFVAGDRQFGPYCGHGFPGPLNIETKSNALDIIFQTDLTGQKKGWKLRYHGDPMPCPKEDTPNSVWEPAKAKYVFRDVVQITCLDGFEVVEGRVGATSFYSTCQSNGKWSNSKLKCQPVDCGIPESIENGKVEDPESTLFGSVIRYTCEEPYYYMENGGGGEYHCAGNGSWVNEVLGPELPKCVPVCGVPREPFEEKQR
The assay is described as follows: Human C1s Enzyme Assay. Format: biochemical. The note with it: human C1s 1.16 nM, 5 min preincubation, substrate Z-L-Lys-SBzl 100 μM, A405; read-out: C1s Protease Activity. Put shortly:
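C1s purified from human serum (1.16 nM final) was preincubated with compound for 5 min at room temperature in 50 mM Tris, 1 M NaCl, pH 7.5. Z-L-Lys-SBzl and DTNB were then added at 100 μM each, and A405 was followed for 30 min. IC50 came from nonlinear regression of reaction rates.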
Take `C[C@@H](NC(=O)[C@@H]1CC2(CN1C(=O)CNC(=O)CCCOc1ccccc1)OCCO2)c1cc(C(=N)N)cs1` [Compound 115, (S)-N-((R)-1-(4-carbamimidoylthiophen-2-yl)ethyl)-7-((4-phenoxybutanoyl)glycyl)-1,4-dioxa-7-azaspiro[4.4]nonane-8-carboxamide]: the IC50 was less than 100 nM. Same read-out and setting: next, `C[C@@]12C[C@@H]1N(C(=O)CNC(=O)c1ccc(Oc3ccccc3)cc1)[C@H](C(=O)N1CCc3c(C(=N)N)csc3C1)C2` [Compound 112, N-(2-((1S,3S,5S)-3-(3-carbamimidoyl-4,5,6,7-tetrahydrothieno[2,3-c]pyridine-6-carbonyl)-5-methyl-2-azabicyclo[3.1.0]hexan-2-yl)-2-oxoethyl)-4-phenoxybenzamide]: 100 to 1000 nM; `CC(C)C(NC(=O)[C@@H]1C[C@@H](OC(F)F)CN1C(=O)CNC(=O)c1ccc(Oc2ccccc2)cc1)c1cc(C(=N)N)cs1` (stereo in doubt) [Compound 188, (2S,4R)-N-((S)-1-(4-carbamimidoylthiophen-2-yl)-2-methylpropyl)-4-(difluoromethoxy)-1-((4-phenoxybenzoyl)glycyl)pyrrolidine-2-carboxamide]: more than 1000 nM; `C[C@@]12C[C@@H]1N(C(=O)CNC(=O)CCCCc1ccccc1)[C@H](C(=O)NCc1cc(C(=N)N)cs1)C2` [Compound 81, (1S,3S,5S)-N-((4-carbamimidoylthiophen-2-yl)methyl)-5-methyl-2-((5-phenyl-pentanoyl)glycyl)-2-azabicyclo[3.1.0]hexane-3-carboxamide]: less than 100 nM. Same read-out and setting: next, `CS(=O)(=O)[C@@H]1C[C@@H](C(=O)NCc2cc(C(=N)N)cs2)N(C(=O)CNC(=O)CCCOc2ccccc2)C1` [Compound 98, (2S,4R)-N-((4-carbamimidoylthiophen-2-yl)methyl)-4-(methylsulfonyl)-1-((4-phenoxybutanoyl)glycyl)pyrrolidine-2-carboxamide]: less than 100 nM. The same measure, in the same setting: next, `N=C(N)c1csc(CNC(=O)[C@@H]2C[C@](F)(CF)CN2C(=O)CNC(=O)CCCOc2ccccc2)c1` [Compound 33, (2S,4R)-N-((4-carbamimidoylthiophen-2-yl)methyl)-4-fluoro-4-(fluoromethyl)-1-((4-phenoxybutanoyl)glycyl)pyrrolidine-2-carboxamide]: less than 100 nM; `C[C@@]12C[C@@H]1N(C(=O)CNC(=O)c1ccc(Oc3ccccc3)cc1)[C@H](C(=O)NCc1nnc(C(=N)N)o1)C2` [Compound 201, (1S,3S,5S)-N-((5-carbamimidoyl-1,3,4-oxadiazol-2-yl)methyl)-5-methyl-2-((4-phenoxybenzoyl)glycyl)-2-azabicyclo[3.1.0]hexane-3-carboxamide]: more than 1000 nM. With `C[C@@]12C[C@@H]1N(C(=O)CNC(=O)CCCOc1ccccc1)[C@H](C(=O)NCc1cc(C(=N)N)c(F)s1)C2` [Compound 245, (1S,3S,5S)-N-((4-carbamimidoyl-5-fluorothiophen-2-yl)methyl)-5-methyl-2-((4-phenoxybutanoyl)glycyl)-2-azabicyclo[3.1.0]hexane-3-carboxamide], the IC50 was less than 100 nM.

Regarding `C[C@@]12C[C@@H]1N(C(=O)CNC(=O)c1ccc(Oc3ccccn3)cc1)[C@H](C(=O)NCc1cc(C(=N)N)cs1)C2` [Compound 153, (1S,3S,5S)-N-((4-carbamimidoylthiophen-2-yl)methyl)-5-methyl-2-((4-(pyridin-2-yloxy)benzoyl)glycyl)-2-azabicyclo[3.1.0]hexane-3-carboxamide], the IC50 was less than 100 nM. On to `CC(=O)NCCOC[C@@]12C[C@@H]1N(C(=O)CNC(=O)CCCOc1ccccc1)[C@H](C(=O)N[C@H](C)c1cc(C(=N)N)cs1)C2` [Compound 142, (1S,3S,5R)-5-((2-acetamidoethoxy)methyl)-N-((R)-1-(4-carbamimidoylthiophen-2-yl)ethyl)-2-((4-phenoxybutanoyl)glycyl)-2-azabicyclo[3.1.0]hexane-3-carboxamide], for which the IC50 lay in the range of 100 to 1000 nM.

Regarding `CC(C)O[C@@H]1C[C@@H](C(=O)NCc2cc(C(=N)N)cs2)N(C(=O)CNC(=O)c2ccc(Oc3ccccc3)cc2)C1` [Compound 138, (2S,4R)-N-((4-carbamimidoylthiophen-2-yl)methyl)-4-isopropoxy-1-((4-phenoxybenzoyl)glycyl)pyrrolidine-2-carboxamide], the IC50 is less than 100 nM. In the case of `C[C@@]12C[C@@H]1N(C(=O)CNC(=O)c1ccc(Oc3ccccc3)cc1)[C@H](C(=O)NCc1cc(C(N)=O)cs1)C2` [Compound 8, (1S,3S,5S)-N-((4-carbamoylthiophen-2-yl)methyl)-5-methyl-2-((4-phenoxybenzoyl)-glycyl)-2-azabicyclo[3.1.0]hexane-3-carboxamide], the IC50 was more than 1000 nM. Same read-out and setting: next, `CO[C@@H]1C[C@@H](C(=O)N[C@H](C)c2cc(C(=N)N)cs2)N(C(=O)CNC(=O)CCCOc2ccccc2)C1` [Compound 106, (2S,4R)-N-((R)-1-(4-carbamimidoylthiophen-2-yl)ethyl)-4-methoxy-1-((4-phenoxy-butanoyl)glycyl)pyrrolidine-2-carboxamide]: less than 100 nM; `Cc1ccccc1[C@@H]1C[C@@H](C(=O)NCc2cc(C(=N)N)cs2)N(C(=O)CNC(=O)CCCOc2ccccc2)C1` [Compound 155, (2S,4S)-N-((4-carbamimidoylthiophen-2-yl)methyl)-1-((4-phenoxybutanoyl)glycyl)-4-(o-tolyl)pyrrolidine-2-carboxamide]: less than 100 nM. Still for that read-out and setting: next, `CS[C@@H]1C[C@@H](C(=O)NCc2cc(C(=N)N)cs2)N(C(=O)CNC(=O)c2ccc(Oc3ccccc3)cc2)C1` [Compound 45, (2S,4R)-N-((4-carbamimidoylthiophen-2-yl)methyl)-4-(methylthio)-1-((4-phenoxy-benzoyl)glycyl)pyrrolidine-2-carboxamide]: less than 100 nM; `Cc1sc(CNC(=O)[C@@H]2C[C@]3(C)C[C@@H]3N2C(=O)CNC(=O)c2ccc(Oc3ccccc3)cc2)cc1C(=N)N` [Compound 204, (1S,3S,5S)-N-((4-carbamimidoyl-5-methylthiophen-2-yl)methyl)-5-methyl-2-((4-phenoxybenzoyl)glycyl)-2-azabicyclo[3.1.0]hexane-3-carboxamide]: more than 1000 nM. As to `N=C(N)c1csc(CNC(=O)[C@@H]2CC(=C(F)F)CN2C(=O)CNC(=O)c2ccc(Oc3ccccc3)cc2)c1` [Compound 1, (S)-N-((4-carbamimidoylthiophen-2-yl)methyl)-4-(difluoromethylene)-1-((4-phenoxybenzoyl)glycyl)pyrrolidine-2-carboxamide], the IC50 was less than 100 nM.

`C[C@@H](NC(=O)[C@@H]1C[C@@]23COCCC/C=C/CCCCCCCCC(=O)N[C@@H](CCOc4ccccc4)C(=O)NCC(=O)N1[C@H]2C3)c1cc(C(=N)N)cs1` [Compound 250, (1R,19S,25S,28S,E)-N-((R)-1-(4-carbamimidoylthiophen-2-yl)ethyl)-17,20,23-trioxo-19-(2-phenoxyethyl)-3-oxa-18,21,24-triazatricyclo[22.2.2.0^1,25]octacos-7-ene-28-carboxamide]: the IC50 was less than 100 nM. Consider `N=C(N)c1csc(CNC(=O)C2CC3(CCC3)CN2C(=O)CNC(=O)CCCOc2ccccc2)c1` (centres unmarked) [Compound 261, N-((4-carbamimidoylthiophen-2-yl)methyl)-6-((4-phenoxybutanoyl)glycyl)-6-azaspiro[3.4]octane-7-carboxamide], for which the IC50 is less than 100 nM. Same read-out and setting: next, `CC(C)C[C@@H](NC(=O)[C@@H]1CC2(CN1C(=O)CNC(=O)CCCOc1ccccc1)OCCO2)c1cc(C(=N)N)cs1` [Compound 173, (S)-N-((R)-1-(4-carbamimidoylthiophen-2-yl)-3-methylbutyl)-7-((4-phenoxybutanoyl)glycyl)-1,4-dioxa-7-azaspiro[4.4]nonane-8-carboxamide]: more than 1000 nM. On the same count and under the same terms, next, `N=C(N)c1csc(CNC(=O)[C@@H]2C[C@@]3(CN2C(=O)CNC(=O)c2ccc(Oc4ccccc4)cc2)CC3(F)F)c1` [Compound 21, (3S,6S)-N-((4-carbamimidoylthiophen-2-yl)methyl)-1,1-difluoro-5-((4-phenoxy-benzoyl)glycyl)-5-azaspiro[2.4]heptane-6-carboxamide]: less than 100 nM.

Take `C[C@@]12C[C@@H]1N(C(=O)CNC(=O)c1ccc(Oc3ccccc3)cc1)[C@H](C(=O)NCc1cc3c(s1)CCN=C3N)C2` [Compound 182, (1S,3S,5S)-N-((4-amino-6,7-dihydrothieno[3,2-c]pyridin-2-yl)methyl)-5-methyl-2-((4-phenoxybenzoyl)glycyl)-2-azabicyclo[3.1.0]hexane-3-carboxamide]: the IC50 is more than 1000 nM.

Staying with this assay, now noted: read-out: C1s Protease Activity; human C1s 1.16 nM, 5 min preincubation, substrate Z-L-Lys-SBzl 100 μM, A405.
On to `N=C(N)c1csc(CNC(=O)C23CCC(CC2)N3C(=O)CNC(=O)CCCOc2ccccc2)c1` [Compound 30, N-((4-carbamimidoylthiophen-2-yl)methyl)-7-((4-phenoxybutanoyl)glycyl)-7-azabicyclo[2.2.1]heptane-1-carboxamide], for which the IC50 was less than 100 nM.

(Values after US20250171423A1, “PHARMACEUTICAL COMPOUNDS FOR THE TREATMENT OF COMPLEMENT MEDIATED DISORDERS” (Achillion Pharmaceuticals, Inc., priority 2020, published 2025).)
